Measurements reported in patent US9345696B2, “Methods for treating nicotinic acetylcholine receptor associated diseases” (priority 2010, dated 2016).

Assays:
V1 of wild-type mice = experiment: Recovery from amblyopia: visual acuity by visual evoked potentials in V1 after long-term MD and eye reopening; format: in vivo, mouse; conditions: WT mice
Excerpt: (§1) Eyelid margins were trimmed by iris scissor and eyes sutured shut under isoflurane anesthesia. Eyes were closed 4-5 days for short term MD (STMD), from P19 to >P60 for long term MD (CP-LTMD), and from P19 to P33 for recovery studies.

[1] = tested on: binocular zone of V1 of Lynx1 knockout and wild-type mice; experiment: Ocular dominance plasticity after short-term monocular deprivation, extracellular recording in vivo (contralateral bias index); design: species or system mouse; conditions: for effect on adult ocular dominance plasticity in Lynx1 knockout mice (in words): concurrent with short-term MD
Procedure: as §1
Electrophysiological recording was performed under nembutal/chlorprothixene anesthesia using standard techniques for mice (T. K. Hensch et al., Science 282: 1504 (1998); J. A. Gordon, M. P. Stryker, J Neurosci 16: 3274 (1996). Ocular dominance in the binocular zone of each mouse was calculated as a contralateral bias index (CBI): [(n1−n7)+2/3(n2−n6)+⅓(n3−n5)+N]/2N, where N=total number of cells and nx=number of cells corresponding to ocular dominance score of x (J. A. Gordon, M. P. Stryker, J Neurosci 16, 3274 (1996)). For statistical comparison of OD distributions, normalized OD scores of single neurons were plotted as cumulative distribution for each experimental group. OD score was computed by PSTH analysis of peak to baseline spiking activity in response to each eye: {[Peak(ipsi)−baseline(ipsi)]−[Peak(contra)-baseline(contra)]}/{[Peak(ipsi)-baseline(ipsi)]+[Peak(contra)-baseline(contra)]}(T. Pizzorusso et al., Science, 298: 1248 (2002)).

Compound	Visual acuity (VEP) (V1 of wild-type mice; LTMD P19 to P33, deprived eye reopened, 0.1 mg/kg i.p. daily from P45, recorded >P60) [cyc/deg]	Visual acuity (VEP) (V1 of wild-type mice; no MD, with AChEI) [cyc/deg]	effect on adult ocular dominance plasticity in Lynx1 knockout mice (in words) ([1]; adult Lynx1 KO mice)	contralateral bias index (CBI) ([1]; adult Lynx1 KO mice, no MD, with mecamylamine)	contralateral bias index (CBI) ([1]; adult Lynx1 KO mice, short-term MD with concurrent nAChR antagonist (systemic i.p. daily or cortical minipump infusion))	contralateral bias index (CBI) ([1]; adult WT mice, short-term MD with concurrent mecamylamine)	contralateral bias index (CBI) ([1]; adult Lynx1 KO mice, adult MD, focal infusion into V1 by osmotic minipump)
CNC(=O)Oc1ccc2c(c1)[C@]1(C)CCN(C)[C@@H]1N2C [physostigmine]	0.48±0.06	0.47±0.02	–	–	–	–	–
CNC1(C)C2CCC(C2)C1(C)C (centres unmarked) [mecamylamine]	–	–	sufficient to prevent adult plasticity	0.68	0.68	0.69	–
CN1C(=O)CN=C(c2ccccc2)c2cc(Cl)ccc21 [Diazepam]	–	–	abolished adult plasticity	–	–	–	0.67
